Source: patent US20190119284A1, “ErbB Inhibitors and Uses Thereof” (The Regents of the University of California, priority 2016, published 2019)
Where two headings read alike, the source gives them in different places.

Key:
[1] = Mouse Liver Microsome stability assay; format: in vitro ADME; settings: mouse liver microsomes
[2] = biological target: 2YF/3wt + NRG Ba/F3 cells (HER2YF/HER3wt) (Homo sapiens, UniProt P04626, Y1005F/Y1023F/Y1112F/Y1127F/Y1139F/Y1196F/Y1221F/Y1222F/Y1248F, cells depend on it); assay: Ba/F3 proliferation assay, 2YF/3wt + NRG; format: cell-based; settings: Tables 7 and 8; read-out: Ba/F3 line IC50, HER2YF/HER3 + NRG
Sequence of 2YF/3wt + NRG Ba/F3 cells (HER2YF/HER3wt) (P04626 whole entry Y1005F/Y1023F/Y1112F/Y1127F/Y1139F/Y1196F/Y1221F/Y1222F/Y1248F): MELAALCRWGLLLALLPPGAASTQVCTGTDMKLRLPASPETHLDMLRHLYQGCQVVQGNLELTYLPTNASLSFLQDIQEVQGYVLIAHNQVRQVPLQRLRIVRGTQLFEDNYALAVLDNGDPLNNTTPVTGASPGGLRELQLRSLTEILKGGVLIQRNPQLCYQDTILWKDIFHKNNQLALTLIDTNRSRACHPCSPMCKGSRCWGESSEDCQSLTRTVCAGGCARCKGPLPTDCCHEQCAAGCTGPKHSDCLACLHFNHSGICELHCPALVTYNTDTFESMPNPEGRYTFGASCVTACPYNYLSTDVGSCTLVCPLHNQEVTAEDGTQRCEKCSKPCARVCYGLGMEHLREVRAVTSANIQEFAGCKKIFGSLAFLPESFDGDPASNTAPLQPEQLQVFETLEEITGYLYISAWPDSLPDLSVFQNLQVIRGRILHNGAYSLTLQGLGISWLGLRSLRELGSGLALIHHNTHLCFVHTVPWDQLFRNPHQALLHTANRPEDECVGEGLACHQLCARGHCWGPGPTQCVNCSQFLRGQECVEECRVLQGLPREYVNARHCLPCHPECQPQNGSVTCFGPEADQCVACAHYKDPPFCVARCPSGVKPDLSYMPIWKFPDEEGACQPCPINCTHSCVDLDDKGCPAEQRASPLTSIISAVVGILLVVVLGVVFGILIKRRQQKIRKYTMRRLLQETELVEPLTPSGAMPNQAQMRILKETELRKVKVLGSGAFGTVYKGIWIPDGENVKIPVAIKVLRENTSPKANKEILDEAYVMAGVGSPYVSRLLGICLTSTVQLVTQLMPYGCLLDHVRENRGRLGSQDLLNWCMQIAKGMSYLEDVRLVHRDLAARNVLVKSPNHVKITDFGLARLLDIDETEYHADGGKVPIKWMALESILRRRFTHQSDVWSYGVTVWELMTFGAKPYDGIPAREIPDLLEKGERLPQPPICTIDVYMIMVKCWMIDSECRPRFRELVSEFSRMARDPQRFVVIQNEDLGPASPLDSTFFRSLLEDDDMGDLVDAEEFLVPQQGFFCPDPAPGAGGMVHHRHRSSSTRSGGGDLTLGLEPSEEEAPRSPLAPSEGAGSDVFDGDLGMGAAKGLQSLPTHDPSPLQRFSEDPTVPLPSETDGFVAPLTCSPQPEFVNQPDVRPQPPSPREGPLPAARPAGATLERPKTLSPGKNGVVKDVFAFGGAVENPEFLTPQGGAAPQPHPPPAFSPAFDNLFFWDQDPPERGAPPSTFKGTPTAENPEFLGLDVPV
Source text: Ba/F3 cells are normally dependent on IL-3 signaling for their proliferation and survival, but can be made dependent on introduced oncogenic signals. We sequentially selected transduced Ba/F3 cells for populations stably expressing HER3 and then HER2. To ensure that all of the proliferative signal could be attributed to HER2/HER3 heterodimers, rather than HER2 homodimers, the 9 C-terminal tyrosines in HER2 were mutated to phenylalanine (HER2YF). We then withdrew IL-3 and supplemented the media with NRG to select for NRG dependent HER2YF/HER3wt cells (2YF/3wt).
For the 2YF/3wt cells, the parental cells were first transduced with HER3 according to the protocol above and were then spun down at 500×g for 5 min and re-suspended in media supplemented with 10 ng/mL IL-3 and 3 μg/mL puromycin (Invitrogen). Cells were maintained in these conditions for seven days, passaging as required. After seven days the cells were spun down, washed with fresh media, and then used for a subsequent round of transduction according to the protocol above with HER2YF virus. […] The cells were maintained in these conditions for seven days, passaging as required. After seven days the cells were spun down, washed with fresh media, and then suspended in media supplemented with 10 ng/mL of NRG. Cells were maintained in these conditions for seven days to select for a NRG dependent population of 2YF/3wt Ba/F3 cells that were then maintained as described above. The same protocol was used for the 2YF-L755S/3wt, 2YF-YVMA/3wt, and 2YF-VC/3wt cell lines using the indicated constructs.
Proliferation Assays. […] The following day media was changed to fresh media that contained either DMSO or the indicated concentration of drug plus NRG (50 ng/mL final concentration) as indicated. […] For all normalized assays, proliferation was normalized to the DMSO control condition. All graphs were plotted in GraphPad Prism 6 and fit with a non-linear regression of the log(inhibitor) vs response with a variable slope where shown. All graphs are averages (+/−standard deviation) of biological triplicates each performed in technical triplicate unless otherwise noted. If only one biological replicate was performed standard deviations were derived from the technical replicates.

HER2+/2VE Ba/F3 line = assay: Ba/F3 proliferation assay, HER2+/2VE; format: cell-based; settings: Tables 7 and 8
Method: (§1) Proliferation Assays. For adherent cell lines, cells were plated onto opaque white 96 well plates (Greiner cat #655083) and allowed to adhere overnight. The following day media was changed to fresh media that contained either DMSO or the indicated concentration of drug plus NRG (50 ng/mL final concentration) as indicated. Plates were incubated at 37° C. for 72 h and proliferation was read out using Cell Titer Glo (Promega) according to the manufacturer's protocol. For Ba/F3 cell proliferation, cells, drug dilution, and any necessary growth factors (10 ng/mL IL-3 or 6.25 ng/mL NRG) were combined in a well of a 96 well plate. Plates were incubated at 37° C. for 48 h and proliferation was read out using Cell Titer Glo according to the manufacturer's protocol. For all normalized assays, proliferation was normalized to the DMSO control condition. All graphs were plotted in GraphPad Prism 6 and fit with a non-linear regression of the log(inhibitor) vs response with a variable slope where shown. All graphs are averages (+/−standard deviation) of biological triplicates each performed in technical triplicate unless otherwise noted. If only one biological replicate was performed standard deviations were derived from the technical replicates.

[3] = system: parental Ba/F3 cells + IL-3; assay: Ba/F3 proliferation assay, Parental + IL-3; format: cell-based; settings: Tables 7 and 8, read-out: Ba/F3 line IC50, Parental + IL-3
Method: (§2) To validate the screen and test the effectiveness of counter-screening with either the same 2YF/3wt Ba/F3 cell line or the parental Ba/F3's in the presence of IL-3 to remove cytotoxic primary hits, we first tested a panel of kinase inhibitors with established mechanisms of action.
as §1

Axl+ Ba/F3 cells = biological target: T1, Axl+ Ba/F3 cells (Homo sapiens, UniProt P30530); assay: Ba/F3 proliferation assay, Axl+; format: cell-based; settings: Tables 7 and 8; read-out: Ba/F3 line IC50, Axl+
T1 sequence (P30530 1-894): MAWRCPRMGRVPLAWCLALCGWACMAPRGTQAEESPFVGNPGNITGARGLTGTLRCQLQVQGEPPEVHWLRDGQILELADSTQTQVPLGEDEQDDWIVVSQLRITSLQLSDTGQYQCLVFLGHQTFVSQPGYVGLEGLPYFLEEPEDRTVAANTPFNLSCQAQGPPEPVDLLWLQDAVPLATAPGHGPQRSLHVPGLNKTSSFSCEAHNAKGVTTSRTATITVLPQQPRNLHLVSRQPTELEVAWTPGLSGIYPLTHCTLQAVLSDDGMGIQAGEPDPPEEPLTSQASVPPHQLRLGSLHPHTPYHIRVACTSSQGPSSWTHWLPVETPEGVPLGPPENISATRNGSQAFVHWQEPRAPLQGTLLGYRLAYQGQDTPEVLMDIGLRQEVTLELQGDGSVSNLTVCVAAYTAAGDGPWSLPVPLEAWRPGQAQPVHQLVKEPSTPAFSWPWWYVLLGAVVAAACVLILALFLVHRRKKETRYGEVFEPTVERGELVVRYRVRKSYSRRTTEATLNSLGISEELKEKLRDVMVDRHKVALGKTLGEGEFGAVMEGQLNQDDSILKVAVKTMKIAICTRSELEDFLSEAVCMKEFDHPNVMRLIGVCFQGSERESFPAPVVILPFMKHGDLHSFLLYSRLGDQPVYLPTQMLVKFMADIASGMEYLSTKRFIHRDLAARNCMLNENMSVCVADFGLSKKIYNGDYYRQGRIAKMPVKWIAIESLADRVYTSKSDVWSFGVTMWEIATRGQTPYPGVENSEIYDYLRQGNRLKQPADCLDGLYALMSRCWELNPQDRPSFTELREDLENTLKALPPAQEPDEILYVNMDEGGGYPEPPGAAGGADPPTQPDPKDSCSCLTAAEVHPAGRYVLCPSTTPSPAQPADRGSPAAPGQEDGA
Method: as §2
For Axl+ cells, the transduced cells were spun down at 500×g for 5 min and resuspended in media supplemented with 10 ng/mL IL-3 and 3 μg/mL puromycin (Invitrogen). Cells were maintained in these conditions for 7 days, passaging as required. After 7 days the cells were spun down, washed with fresh media, and then suspended in IL-3 free media. The cells were maintained in these conditions for 2 weeks to select for an IL-3 independent population of Axl+ driven cells.
as §1

Row | Structure (SMILES) | WuXi Microsomal stability (Mouse Extraction Ratio) [1] | GI50 [2] | IC50 (HER2+/2VE Ba/F3 line; Mus musculus, BaF3) | IC50 ([3]; Mus musculus, BaF3) | GI50 (Axl+ Ba/F3 cells) | IC50 (HER2+/2VE Ba/F3 line) | IC50 [3]
1 | COc1ccc(-c2ccccc2F)cc1Nc1ncnc2[nH]nc(-c3cc[nH]n3)c12 [8168A] | 0.8 | – | – | – | – | – | –
2 | COc1ccc(-c2ccccc2)cc1Nc1ncnc2[nH]nc(-c3ccc[nH]3)c12 [Cmpd 45C] | – | 952 nM | > 3330 nM | > 10000 nM | > 3330 nM | – | –
3 | COc1ccc(-c2ccccc2)cc1Nc1ncnc2[nH]nc(-c3cccc(C(N)=O)c3)c12 [Cmpd 45D] | – | 270 nM | 869 nM | 3010 nM | 880 nM | – | –
4 | COc1ccc(-c2ccccc2)cc1Nc1ncnc2[nH]nc(-c3cn[nH]c3)c12 [Cmpd 45E] | – | 53 nM | 1350 nM | > 10000 nM | > 10000 nM | – | –
5 | CNC(=O)c1cc(-c2n[nH]c3ncnc(Nc4cc(-c5ccccc5)ccc4OC)c23)cs1 [Cmpd 45F] | – | 739 nM | 1020 nM | > 10000 nM | 535 nM | – | –
6 | COc1ccc(-c2ccco2)cc1Nc1ncnc2[nH]nc(-c3cn[nH]c3)c12 [Cmpd 53B] | – | 13.9 nM | 83.5 nM | > 10000 nM | > 10000 nM | – | –
7 | COc1ccc(-c2ccoc2)cc1Nc1ncnc2[nH]nc(-c3ccco3)c12 [Cmpd 57A] | – | 21 nM | 460 nM | > 10000 nM | > 10000 nM | – | –
8 | COc1ccc(-c2ccoc2)cc1Nc1ncnc2[nH]nc(-c3cn[nH]c3)c12 [Cmpd 57B] | – | 12.6 nM | 82.9 nM | > 10000 nM | > 10000 nM | – | –
9 | COc1ccc(-c2ccccc2)cc1Nc1ncnc2[nH]nc(-c3ccccc3)c12 [Cmpd 184] | – | 386 nM | 1290 nM | 9950 nM | 527 nM | – | –
10 | c1ccc(-c2cccc(Nc3ncnc4[nH]nc(-c5ccccc5)c34)c2)cc1 [Cmpd 186A] | – | > 10000 nM | > 10000 nM | > 10000 nM | > 10000 nM | – | –
11 | CC(=O)c1cccc(-c2n[nH]c3ncnc(Nc4cccc(-c5ccccc5)c4)c23)c1 [Cmpd 186B] | – | > 10000 nM | > 10000 nM | > 10000 nM | > 10000 nM | – | –
12 | COc1ccccc1Nc1ncnc2[nH]nc(-c3ccccc3)c12 [Cmpd 187A] | – | > 10000 nM | > 10000 nM | > 10000 nM | > 10000 nM | – | –
13 | COc1ccccc1Nc1ncnc2[nH]nc(-c3cccc(C(C)=O)c3)c12 [Cmpd 187B] | – | > 10000 nM | > 10000 nM | > 10000 nM | > 10000 nM | – | –
14 | c1ccc(-c2ccc(Nc3ncnc4[nH]nc(-c5ccccc5)c34)cc2)cc1 [Cmpd 188A] | – | > 10000 nM | > 10000 nM | > 10000 nM | > 10000 nM | – | –
15 | CC(=O)c1cccc(-c2n[nH]c3ncnc(Nc4ccc(-c5ccccc5)cc4)c23)c1 [Cmpd 188B] | – | > 10000 nM | > 10000 nM | > 10000 nM | > 10000 nM | – | –
16 | COc1ccc(-c2ccccc2)cc1Nc1ncnc2[nH]nc(-c3ccccc3F)c12 [Cmpd 189A] | – | 361 nM | 613 nM | 1120 nM | 362 nM | – | –
17 | COc1ccc(-c2n[nH]c3ncnc(Nc4cc(-c5ccccc5)ccc4OC)c23)cc1 [Cmpd 189B] | – | > 10000 nM | – | – | > 10000 nM | > 10000 nM | > 10000 nM
18 | COc1cccc(-c2n[nH]c3ncnc(Nc4cc(-c5ccccc5)ccc4OC)c23)c1 [Cmpd 190A] | – | 86.8 nM | 229 nM | 450 nM | 171 nM | – | –
19 | COc1ccc(-c2ccccc2)cc1Nc1ncnc2[nH]nc(-c3ccc4ccccc4c3)c12 [Cmpd 190C] | – | 862 nM | 1840 nM | 1510 nM | 643 nM | – | –
20 | COc1ccc(C(C)(C)C)cc1Nc1ncnc2[nH]nc(-c3cccc(C(C)=O)c3)c12 [Cmpd 190D] | – | > 10000 nM | > 10000 nM | > 10000 nM | > 10000 nM | – | –
21 | CC(=O)c1cccc(-c2n[nH]c3ncnc(Nc4cc(-c5ccccc5)ccc4O)c23)c1 [Cmpd 191A] | – | 150 nM | 769 nM | 2910 nM | 506 nM | – | –
22 | COc1ccc(-c2ccccc2)cc1Nc1ncnc2[nH]nc(-c3cccc4ccccc34)c12 [Cmpd 191B] | – | > 1000 nM | > 1000 nM | > 1000 nM | > 1000 nM | – | –
23 | COc1ccc(-c2ccccc2)cc1Nc1ncnc2[nH]nc(-c3ccc(C#N)cc3)c12 [Cmpd 191D] | – | 884 nM | 1110 nM | 1740 nM | 1010 nM | – | –
24 | COc1ccc(-c2ccccc2)cc1Nc1ncnc2[nH]nc(-c3ccc(C(F)(F)F)cc3)c12 [Cmpd 191E] | – | > 10000 nM | > 10000 nM | > 10000 nM | > 10000 nM | – | –
25 | COc1ccc(-c2ccccc2)cc1Nc1ncnc2[nH]nc(-c3ccsc3)c12 [Cmpd 191F] | – | 376 nM | 1700 nM | 2510 nM | 2150 nM | – | –
26 | COc1ccc(-c2ccccc2)cc1Nc1ncnc2[nH]nc(-c3ccc(C(C)=O)cc3)c12 [Cmpd 191H] | – | > 10000 nM | > 10000 nM | > 10000 nM | > 10000 nM | – | –
27 | COc1ccc(-c2ccccc2)cc1Nc1ncnc2[nH]nc(-c3cccc(C(C)=O)c3)c12 [compound 185, 1-(3-(4-((4-methoxy-[1,1′-biphenyl]-3-yl)amino)-1H-pyrazolo[3,4-d]pyrimidin-3-yl)phenyl)ethanone] | – | 148 nM | 243 nM | 1490 nM | 257 nM | – | –
28 | COc1cc(C)c(-c2ccccc2)cc1Nc1ncnc2[nH]nc(-c3cc[nH]n3)c12 [compound 8134] | 0.7 | – | – | – | – | – | –
